Experimental data: US12692238B2, “Substituted pyridazinone herbicides” (FMC CORPORATION, priority 2020, dated 2026)

Key:
Assay type in all cases: in vivo
[1] = tested on: blackgrass (Alopecurus myosuroides); assay: Test A preemergence, blackgrass; settings: 0 to 100 scale, 10 days
Outline: (§1)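 Both application timings shared one formulation: test chemical in non-phytotoxic solvent with surfactant. Preemergence used a directed soil spray at sowing, postemergence a spray on 2–10 cm seedlings. Untreated plants served as reference for 0–100 visual ratings after 10 days.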

corn (Zea mays) [2] = assay: Test A preemergence, corn; settings: 0 to 100 scale, 10 days
Outline: as §1

[3] = tested on: goosegrass (Eleusine indica); assay: Test A preemergence, goosegrass; settings: 0 to 100 scale, 10 days
Outline: as §1

[4] = tested on: oat, wild (wild oat, Avena fatua); assay: Test A preemergence, oat, wild; settings: 0 to 100 scale, 10 days
Outline: as §1

[5] = tested on: palmer amaranth (pigweed, palmer, Amaranthus palmeri); assay: Test A preemergence, palmer amaranth; settings: 0 to 100 scale, 10 days
Outline: as §1

[6] = tested on: ryegrass, Italian (Italian ryegrass, Lolium multiflorum); assay: Test A preemergence, ryegrass, Italian; settings: Lolium multiflorum, pre-emergence, 240 h, 0 to 100 scale, 10 days, read-out: Plant response rating, Ryegrass, Italian
Outline: as §1

soybean (Glycine max) [7] = assay: Test A preemergence, soybean; settings: 0 to 100 scale, 10 days
Outline: as §1

corn (Zea mays) [8] = assay: Test A postemergence, corn; settings: Zea mays, post-emergence, 240 h, 10 days
Outline: as §1

[9] = tested on: goosegrass (Eleusine indica); assay: Test A postemergence, goosegrass; settings: 10 days
Outline: as §1

[10] = tested on: oat, wild (wild oat, Avena fatua); assay: Test A postemergence, oat, wild; settings: 10 days
Outline: as §1

[11] = tested on: palmer amaranth (pigweed, palmer, Amaranthus palmeri); assay: Test A postemergence, palmer amaranth; settings: 10 days
Outline: as §1

soybean (Glycine max) [12] = assay: Test A postemergence, soybean; settings: 10 days
Outline: as §1

[13] = tested on: horseweed (Erigeron canadensis); assay: Test A postemergence, horseweed; settings: 10 days
Outline: as §1

rice (Oryza sativa) = assay: Test B flooded paddy test, rice; settings: Oryza sativa; 250 g ai/ha, Flood; visually evaluated after 10 to 14 days; read-out: Plant response rating, Rice (0 to 100 scale where 0 is no effect and 100 is complete control)
Outline: (§2)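 Visual ratings (0 = no effect to 100 = complete control) were made versus controls 10 to 14 days after treatment. Compounds were added to the floodwater of pots flooded 3 cm above the soil surface when plants reached the 2-leaf stage.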

[14] = tested on: sedge, umbrella (small-flower umbrella sedge, Cyperus difformis); assay: Test B flooded paddy test, sedge, umbrella; settings: Cyperus difformis; 250 g ai/ha, Flood; visually evaluated after 10 to 14 days; read-out: Plant response rating, Sedge, Umbrella (0 to 100 scale where 0 is no effect and 100 is complete control)
Outline: as §2

[15] = tested on: wheat (Triticum aestivum); assay: Test A preemergence, wheat; settings: 125 g ai/ha, 0 to 100 scale, 10 days
[16] = 31 g ai/ha, postemergence, 0 to 100 scale (0 no effect, 100 complete control)
[17] = Postemergence, 125 g ai/ha, 0 to 100 scale

COC(=O)OCOc1c(C)nn(C)c(=O)c1-c1c2cc(C)ccc2cc2ccc(F)cc12 [Compound 15, [[5-(2-fluoro-7-methyl-9-anthracenyl)-1,6-dihydro-1,3-dimethyl-6-oxo-4-pyridazinyl]oxy]methyl methyl carbonate]
Plant response rating, Blackgrass ([1]; 31 g ai/ha): 30 | Plant response rating, Blackgrass ([1]; 125 g ai/ha): 10 | Plant response rating, Corn (corn (Zea mays) [2]; 31 g ai/ha): 0 | Plant response rating, Corn (corn (Zea mays) [2]; 125 g ai/ha): 30 | Plant response rating, Goosegrass ([3]; 31 g ai/ha): 50 | Plant response rating, Goosegrass ([3]; 125 g ai/ha): 90 | Plant response rating, Oat, Wild ([4]; 31 g ai/ha): 20 | Plant response rating, Oat, Wild ([4]; 125 g ai/ha): 20 | Plant response rating, Pigweed, Palmer ([5]; 31 g ai/ha): 100 | Plant response rating, Pigweed, Palmer ([5]; 125 g ai/ha): 100 | pest or weed control at 31 g/ha ([6]; 31 g ai/ha): 50% | pest or weed control at 125 g/ha ([6]; 125 g ai/ha): 100% | Plant response rating, Soybean (soybean (Glycine max) [7]; 31 g ai/ha): 0 | Plant response rating, Soybean (soybean (Glycine max) [7]; 125 g ai/ha): 10 | Corn plant response rating (crop injury, 0 = no effect, 100 = complete kill) at 31 g/ha (corn (Zea mays) [8]; [16]): 0% | Corn plant response rating (crop injury, 0 = no effect, 100 = complete kill) at 125 g/ha (corn (Zea mays) [8]; [17]): 50% | Plant response rating, Goosegrass [9, 16]: 30 | Plant response rating, Goosegrass [9, 17]: 60 | Plant response rating, Oat, Wild [10, 16]: 20 | Plant response rating, Oat, Wild [10, 17]: 40 | Plant response rating, Pigweed, Palmer [11, 16]: 100 | Plant response rating, Pigweed, Palmer [11, 17]: 100 | Plant response rating, Soybean (soybean (Glycine max) [12]; [16]): 80 | Plant response rating, Soybean (soybean (Glycine max) [12]; [17]): 90 | Plant response rating, Horseweed [13, 16]: 100 | Plant response rating, Horseweed [13, 17]: 100 | plant injury at 250 g/ha (rice (Oryza sativa)): 65% | pest or weed control at 250 g/ha [14]: 90% | Plant response rating, Wheat [15]: 0
